For experiment [1], the system named is RAT2 fibroblast cell line. Kind of experiment: Cytotoxicity on proliferating cells, crystal violet assay, OD590. In kind it is cell-based. The settings on record: Rat2, 24 h, 24 h treatment, read-out: EC50 ± SEM RAT2. The procedure: (§1) MDCK and RAT cells were cultured in DMEM with 10% FBS at 37 °C in a 5% CO2 atmosphere as described previously. , To assess the toxic effects of the compounds on proliferating cells, cells were seeded in 24-well plates for 24 h to reach ∼15% confluence, and cells were treated in triplicate with increasing concentrations of the isolated compounds for an additional 24 h. Cells were washed with 1× PBS, fixed in staining solution (0.5% crystal violet, 20% methanol) for 10 min, and gently washed five times in 1× PBS. The fixed cells were then dissolved in lysis solution (0.1 M sodium citrate, 25% ethanol, pH 4.2) for 30 min, transferred to a 96-well plate in H2O, and the OD^590 was determined. EC50 values were determined using GraphPad Prism software and the dose–response fit equation. The EC50 values were determined from two independent experiments. Additionally, the impact of the isolated substances on the morphology of the HeLa adenocarcinoma cell line and primary human skin fibroblasts was examined by using fluorescence microscopy. Cells were cultured in DME medium supplemented with 10% FCS (Gibco, Invitrogen, Carlsbad, USA) on glass coverslips in 24-well plates until reaching approximately 50% confluence. The cells were treated with varying concentrations of isolated compounds dissolved in DMSO. Wells containing DMEM with DMSO served as the negative control. After 24 h cultivation, the cells were incubated with MitoTracker Red CMXRos (10 min) to label mitochondria, then fixed with 3.7% paraformaldehyde in PBS (20 min, room temperature), permeabilized with 0.1% Triton X-100 in PBS, and blocked with 1% BSA in PBS. The cells were then stained with Phalloidin-Alexa Fluor488 conjugate. All fluorescence reagents were purchased from Molecular Probes, Invitrogen, Carlsbad, CA, USA. Nuclei were stained with Fluoroshield DAPI (Sigma-Aldrich), and cells were examined using an IX71 microscope equipped with a DP70 camera and a 40× objective. Assays were performed at concentrations of 5, 25, 50, 100, and 125 μM.

Experiment [2] has as its system Madin–Darby canine kidney (MDCK) epithelial cell line. The description is as above. The settings on record: Canis lupus familiaris, 24 h treatment, read-out: EC50 ± SEM MDCK. It is filed as cell-based. The procedure:
as §1

For another experiment, the system named is T. b. evansi AnTat 3/3. Kind of experiment: Anti-trypanosomal activity, resazurin (AB assay), bloodstream form. The settings on record: Trypanosoma brucei, 72 h, axenic, 48 h + 24 h resazurin. In kind it is cell-based, T. brucei evansi. Here is the method: (§2) The bloodstream forms of T. b. gambiense LiTat 1.3, T. b. brucei 427, and T. b. evansi AnTat 3/3 were grown in HMI-11 medium pH 7.3 supplemented with 36 mM sodium bicarbonate, 100 U/mL penicillin/streptomycin, and 10% fetal bovine serum at 37 °C and 5% CO2. The bloodstream form of Trypanosoma congolense IL3000 (generous gift from Liam Morrison) was cultured in TcBSF-1 medium pH 7.3 supplemented with 26 mM sodium bicarbonate, 25 mM HEPES, 5.5 mM glucose, 1 mM sodium pyruvate, 0.04 mM adenosine, 0.1 mM hypoxanthine, 0.02 mM thymidine, 0.02 mM bathocuproine, 2 mM L-glutamine, 0.2 mM 2-mercaptoethanol, 100 U/ml penicillin/streptomycin, and 20% goat serum New Zealand origin (Gibco) at 34 °C, 5% CO2. The assay for anti-trypanosomal activity was performed using the resazurin sodium salt dye (AB Assay) according to the published protocol in a 96-well plate format. Parasites at a number of 5 × 10^3 per well (T. b. brucei and T. b. gambiense) or 1 × 10^4 per well (T. b. evansi) were incubated with different drug concentrations (2-fold serial dilutions) in a volume of 200 μL of the medium. Medium with 1% DMSO (the highest concentration of the solvent used in the assay) was used to confirm no effect of the solvent on the cell growth. The plates were incubated for 48 h at the appropriate temperature. Then, 20 μL of resazurin sodium salt solution (0.125 mg/mL in 1× PBS, pH 7. 4) was added to each well, and the cells were incubated for another 24 h under the same conditions. The fluorescence signal was quantified using a Tecan Infinite M200 plate reader at excitation and emission wavelengths of 560 and 590 nm, respectively. The EC50 values were calculated using GraphPad Prism 9.5.1 by nonlinear regression with a variable slope. Each EC50 value is the mean ± standard error of the mean of three separate experiments performed in duplicate.
A general note: Alamar Blue is a resazurin reagent that responds to reducing activity.

A further experiment concerns K. rhizophila ATCC 9341. Kind of experiment: Minimum inhibitory concentration (MIC) testing, serial binary dilution in 96-well plates. It is filed as cell-based. The settings on record: Kocuria rhizophila, ATCC9341; 24 h in the dark; lowest concentration with no live microorganisms. The procedure: (§3) Minimum inhibitory concentration (MIC) testing of the extracts was performed using 96-well polypropylene plates against four different microorganisms: the Gram-positive bacterium K. rhizophila ATCC 9341, the Gram-negative bacterium E. coli ATCC 3988, and the yeasts C. albicans CCM 8215 and C. neoformans CCF 1081.
(§4) A working inoculum of each microorganism was prepared as follows: for E. coli and K. rhizophila, the inoculum was grown in LB medium (LB Broth, 25 g/L, incubated at 36 °C); for C. albicans and C. neoformans, YM6.3 medium (maltose extract 10 g, glucose 4 g, yeast extract 4 g per 1 L distilled water, incubated at 24 °C) with a cell concentration of approximately 5 × 10^5 cells/mL for all microorganisms was used.
(§5) Chloramphenicol served as a positive control for bacteria, while cycloheximide was used as a positive control for fungi. The gradient of the test substances was established by serial binary dilution across the wells. The MIC was determined by identifying the lowest concentration at which no live microorganisms were present. Cultivation was performed in the dark for 24 h.

In the next experiment the test system is E. coli ATCC 3988. The description is as above. The settings on record: Escherichia coli, ATCC3988; 24 h in the dark; lowest concentration with no live microorganisms. It is filed as cell-based. Here is the method: as §3, §4, §5
The test system of the next experiment is C. albicans CCM 8215. The description is as above. It is filed as cell-based. The settings on record: Candida albicans, CCM8215; 24 h in the dark; n.d. = activity not detected; highest tested concentration 66.7 μM. The procedure: as §3, §4, §5
For the next experiment, the system named is C. neoformans CCF 1081. Described as above. The settings on record: Cryptococcus neoformans, CCF1081; 24 h in the dark; n.d. = activity not detected; highest tested concentration 66.7 μM. In kind it is cell-based. Here is the method:
as §3, §4, §5

In experiment [3] the test system is Trypanosoma congolense IL3000. Kind of experiment: Anti-trypanosomal activity, resazurin (AB assay), bloodstream form. In kind it is cell-based. The settings on record: 72 h, axenic, 48 h + 24 h resazurin, read-out: EC50 T. congolense. Here is the method:
as §2

A further experiment relates to T. b. brucei 427. The experiment is described as above. In kind it is cell-based. The settings on record: Trypanosoma brucei, 72 h, axenic, 48 h + 24 h resazurin. The procedure:
as §2

Experiment [4] relates to T. b. gambiense LiTat 1.3. The experiment is described as above. In kind it is cell-based, T. brucei gambiense. The settings on record: Trypanosoma brucei, 72 h, axenic, 48 h + 24 h resazurin. The procedure: as §2
Experiment [5] deals with L. mexicana (MNYC/BZ/1962/M379) promastigote. The experiment in a line: Anti-Leishmania activity, AB assay, axenic promastigotes. It is filed as cell-based. Here is the method:
(§6) Promastigote stages of L. mexicana (MNYC/BZ/1962/M379), a generous gift from Vyacheslav Yurchenko, were cultured in M199 medium pH 7.4 supplemented with 2 μg/mL biopterin, 2 μg/mL hemin, 25 mM HEPES, 100 U/mL penicillin/streptomycin, and 10% heat-inactivated FBS (BioSera) pH 7.4 at 25 °C. The amastigotes were differentiated in vitro from late log/stationary promastigote cultures and cultivated in Schneider’s Drosophila Medium (SIM) at pH 5.5, supplemented with 1.5 μg/mL hemin, 100 U/mL penicillin/streptomycin, and 20% heat-inactivated FBS (BioSera) at pH 5.5, at 32 °C, and 5% CO2. Following a three-day period, the promastigotes underwent a transformation into amastigotes, which were then maintained in SIM.
(§7) To estimate the EC50, the AB assay, as previously described, was employed. The results are expressed as EC50, representing the dose of the compound required to inhibit cellular growth by 50%. Each EC50 value is the mean ± the standard error of the mean derived from at least three separate experiments, each performed in duplicate.

The test system of experiment [6] is L. mexicana (MNYC/BZ/1962/M379) amastigote. The experiment in a line: Anti-Leishmania activity, AB assay, axenic amastigotes. In kind it is cell-based. The procedure:
as §6, §7

Values after ≈ are worked out from the molar mass of the structure shown.

The source of these data is PMC12163684, “Gunacins: Novel Benzo[g]chromene Derivatives from the Fungus Exobasidium sp. and Their Potent Anti-Leishmania and Trypanosoma Activities” (ACS Omega, 2025).

As usually defined, the EC50 is the concentration giving half of the maximal effect. For `COc1cc(O)c2c(c1)C(=O)C1=C(C2=O)[C@@H](O)[C@@H](O)[C@@H](C)O1` [Compound 4, (2R,3R,4R)-3,4,6-trihydroxy-8-methoxy-2-methyl-3,4-dihydro-2H-benzo[g]chromene-5,10-dione], the EC50 came to 5.1 ± 0.1 µM in experiment [1] and 6 ± 1 µM in experiment [2].

What is called MIC is the least concentration at which growth counts as inhibited. On to `COc1cc(O)c2c(c1)C(=O)C1=C(C[C@@H](O)[C@@H](C)O1)C2=O` [Compound 6, (2R,3R)-3,6-dihydroxy-8-methoxy-2-methyl-3,4-dihydro-2H-benzo[g]chromene-5,10-dione], for which the EC50 in [1] was 6.7 ± 0.8 µM; in experiment [2], 7.2 ± 0.5 µM; with T. b. evansi AnTat 3/3, 2.4 µM; in experiment [3], 9.2 µM; in the experiment on T. b. brucei 427 it was 5.1 µM; in experiment [4], 8.6 µM. Also, the EC50 is 25.2 µM in experiment [5] and 5.5 µM in experiment [6]. In addition, the MIC came out at 8.3 µM (≈ 2.41 µg/mL) in the experiment on K. rhizophila ATCC 9341, 2.1 µM (≈ 0.61 µg/mL) against E. coli ATCC 3988, 66.7 µM (≈ 19.4 µg/mL) against C. albicans CCM 8215 and 66.7 µM (≈ 19.4 µg/mL) in the experiment on C. neoformans CCF 1081.

Regarding `C[C@@H]1[C@H](O)[C@@H](C)/C=C/C=C/C=C/C=C/C=C/C=C/C=C/[C@H](O[C@@H]2O[C@H](C)[C@@H](O)[C@H](N)[C@@H]2O)C[C@@H]2O[C@](O)(C[C@@H](O)C[C@@H](O)[C@H](O)CC[C@@H](O)C[C@@H](O)CC(=O)O[C@H]1C)C[C@H](O)[C@H]2C(=O)O` [amphotericin B, reference compound], the midpoint of the response in experiment [5], the EC50, lay at 0.1 µM.

On to `O=C(N[C@H](CO)[C@H](O)c1ccc([N+](=O)[O-])cc1)C(Cl)Cl` [chloramphenicol, reference compound], for which the MIC against K. rhizophila ATCC 9341 and in the experiment on E. coli ATCC 3988 was 10.3 µM (≈ 3.33 µg/mL) throughout.
